# According to patent US8143248B2, “Tricyclic N-heteroaryl-carboxamide derivatives containing a benzimidazole unit, method for preparing same and their therapeutic use” (Sanofi-Aventis, priority 2006, dated 2012):
# What was measured:
# TRPV1 receptor = molecular target: T1, TRPV1 receptor (Rattus norvegicus, UniProt O35433); test: Test for inhibition of the current induced by capsaicin on rat DRGs (whole-cell patch-clamp); type: cell-based; conditions: DRG neuron; compound at 10 nM; % inhibition of the control capsaicin response; newborn rat DRG neurons
# T1 construct: The neurons of the DRG naturally express the TRPV1 receptor; endogenous in cells; host or cells: primary culture of newborn rat dorsal root ganglion neurons
# T1 sequence (O35433 whole entry): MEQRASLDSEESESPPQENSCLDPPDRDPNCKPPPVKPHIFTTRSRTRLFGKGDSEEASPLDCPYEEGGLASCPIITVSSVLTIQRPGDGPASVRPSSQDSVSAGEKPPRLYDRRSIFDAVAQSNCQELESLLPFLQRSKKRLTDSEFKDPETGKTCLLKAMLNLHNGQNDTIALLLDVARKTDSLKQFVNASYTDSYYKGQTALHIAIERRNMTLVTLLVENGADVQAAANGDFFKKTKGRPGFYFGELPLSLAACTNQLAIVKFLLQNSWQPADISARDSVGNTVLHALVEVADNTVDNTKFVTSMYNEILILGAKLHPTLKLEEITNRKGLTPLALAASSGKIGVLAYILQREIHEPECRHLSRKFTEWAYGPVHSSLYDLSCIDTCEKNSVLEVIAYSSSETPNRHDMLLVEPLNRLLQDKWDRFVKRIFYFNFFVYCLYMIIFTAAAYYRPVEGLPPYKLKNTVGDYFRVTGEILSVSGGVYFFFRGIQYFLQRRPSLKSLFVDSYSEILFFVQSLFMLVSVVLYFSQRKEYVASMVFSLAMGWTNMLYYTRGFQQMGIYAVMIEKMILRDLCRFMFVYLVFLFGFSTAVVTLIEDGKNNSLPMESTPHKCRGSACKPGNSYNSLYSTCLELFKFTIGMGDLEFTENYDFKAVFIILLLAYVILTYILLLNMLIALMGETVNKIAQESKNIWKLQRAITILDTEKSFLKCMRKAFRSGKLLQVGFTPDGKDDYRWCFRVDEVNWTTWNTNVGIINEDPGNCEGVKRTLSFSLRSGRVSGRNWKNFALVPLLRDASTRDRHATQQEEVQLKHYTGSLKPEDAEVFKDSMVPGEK
# Experimental: Test for Inhibition of the Current Induced by Capsaicin on Rat DRGs
# Primary Culture of Rat Dorsal Root Ganglion (DRG) Cells:
# The neurons of the DRG naturally express the TRPV1 receptor.
# Newborn rat DRG primary cultures are prepared from 1-day-old rat pups. Briefly, after dissection, the ganglia are trypsinized and the cells are mechanically dissociated by controlled trituration. The cells are resuspended in an Eagle's basal culture medium containing 10% of fetal calf serum, 25 mM KCl, 2 mM glutamine, 100 μg/ml gentamicin and 50 ng/ml of NGF, and then deposited onto laminin-coated glass cover slips (0.25×10^6 cells per cover slip) which are then placed in 12-well Corning dishes. The cells are incubated at 37° C. in a humidified atmosphere containing 5% CO2 and 95% air. […]
# The measuring chambers (volume 800 μl) containing the cell preparation are placed on the platform of an inverted microscope (Olympus IMT2) equipped with Hoffman optics (Modulation Contrast, New York), and observed at the magnification of ×400. […] The overall currents (membrane potential fixed at −60 mV) are recorded with an Axopatch 1D amplifier (Axon Instruments, Foster City, Calif.), connected to a PC controlled by Pclamp8 software (Axon Instrument). The current traces are recorded on paper and simultaneously digitized (sampling frequency 15 to […]) and acquired on the hard drive of the PC. […]
# TRPV1 receptors = molecular target: T2, TRPV1 receptors (Mus musculus, UniProt Q704Y3); test: Mouse corneal irritation test (capsaicin-induced eye rubbing); type: in vivo; conditions: compound 500 μM, 2 μl on the cornea 10 minutes before capsaicin 160 μM; eye rubs counted over 2 minutes
# T2 construct: application of a very small amount of capsaicin (2 μl at a concentration of 160 μM) to the surface of the cornea of an animal; from tissue; host or cells: mouse cornea in vivo (C fibres)
# T2 sequence (Q704Y3 whole entry): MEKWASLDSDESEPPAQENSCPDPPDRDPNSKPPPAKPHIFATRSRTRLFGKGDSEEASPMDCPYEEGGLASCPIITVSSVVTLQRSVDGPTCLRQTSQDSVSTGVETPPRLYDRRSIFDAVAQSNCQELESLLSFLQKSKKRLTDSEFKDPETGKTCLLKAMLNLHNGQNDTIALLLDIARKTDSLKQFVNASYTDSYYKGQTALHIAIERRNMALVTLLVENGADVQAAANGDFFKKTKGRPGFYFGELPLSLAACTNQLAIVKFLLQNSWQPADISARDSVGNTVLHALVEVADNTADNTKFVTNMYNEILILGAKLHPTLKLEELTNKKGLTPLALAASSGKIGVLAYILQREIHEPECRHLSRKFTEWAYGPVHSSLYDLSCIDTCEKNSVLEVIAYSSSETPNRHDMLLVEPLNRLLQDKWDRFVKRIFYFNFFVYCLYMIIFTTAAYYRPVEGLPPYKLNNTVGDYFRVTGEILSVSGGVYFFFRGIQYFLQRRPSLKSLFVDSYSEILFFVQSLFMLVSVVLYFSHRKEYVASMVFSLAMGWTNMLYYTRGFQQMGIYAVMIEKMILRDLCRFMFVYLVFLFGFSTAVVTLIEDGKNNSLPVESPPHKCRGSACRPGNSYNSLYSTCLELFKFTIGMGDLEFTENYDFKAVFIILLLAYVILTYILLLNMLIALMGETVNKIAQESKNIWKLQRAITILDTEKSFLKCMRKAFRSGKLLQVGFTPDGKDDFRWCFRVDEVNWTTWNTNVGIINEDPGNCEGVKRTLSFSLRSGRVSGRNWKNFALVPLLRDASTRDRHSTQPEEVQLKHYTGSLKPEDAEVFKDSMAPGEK
# Experimental: Mouse Corneal Irritation Test
# The irritant nature of capsaicin can be readily assessed at the level of the cornea since this organ is one of the most innervated by C fibers. In this context, according to the preliminary experiments, the application of a very small amount of capsaicin (2 μl at a concentration of 160 μM) to the surface of the cornea of an animal results in a certain number of stereotyped behaviors associated with the irritation and that can be readily listed. Among these are: blinking of the eye, rubbing of the eye instilled with the ipsilateral forelimb, rubbing of the face with both forelimbs, scratching of the ipsilateral face with the hind limb. […] Its appearance is, moreover, also normal. […] It can be concluded from this that the duration of action of capsaicin at these doses is less than 2 minutes.
# Summary of the Methodology:
# The principle of the series of experiments is to determine whether the compounds of the invention can influence the behavioral response induced by a given amount of capsaicin. The capsaicin is initially diluted to 25 mM in DMSO and diluted, for its final use, in physiological saline with 10% Tween 80. It appears, based on control studies, that, under these conditions, the solvent has no effect.
# In practice, the product to be tested, prepared at 25 mM in DMSO and diluted for its final use in physiological saline with 10% Tween 80, at the highest concentration of 500 μM, is administered by local application to the surface of the cornea in a volume of 2 μl, 10 minutes before the application of the capsaicin. The animal receives the ocular instillation of 2 μl of a solution of capsaicin at […] prepared as indicated above. Over the course of a period of observation of 2 minutes following the instillation, the number of times the instilled eye is rubbed by the ipsilateral forelimb is counted for each animal.
# For a given group, the percentage protection is calculated as follows: P=100−((average number of scratches of the group treated with the compound/average number of scratches of the group treated with the solvent)×100). […]
SMILES,inhibition at 0.01 µM (TRPV1 receptor) [%],% P 500 μM (percentage protection) (TRPV1 receptors) [%],further results
O=C(Nc1ccc2nc3ncccn3c2c1)c1cc2cc(F)ccc2n1Cc1cccc(F)c1,,,melting point: 295 to 298 °C
"O=C(Nc1ccc2c(c1)nc1n2CCCC1)c1cc2cc(F)ccc2n1Cc1ccncc1 [Compound 1, N-(1,2,3,4-tetrahydropyrido[1,2-a]benzimidazol-7-yl)-5-fluoro-1-[(pyridin-4-yl)methyl]-1H-indole-2-carboxamide]",37,,
"O=C(Nc1ccc2c(c1)nc1n2CCC1)c1cc2cc(F)ccc2n1Cc1ccncc1 [Compound 5, N-(2,3-dihydro-1H-pyrrolo[1,2-a]benzimidazol-6-yl)-5-fluoro-1-[(pyridin-4-yl)methyl]-1H-indole-2-carboxamide]",53,,
"O=C(Nc1ccc2c(c1)nc1n2CCC1)c1cc2cc(C(F)(F)F)cnc2n1Cc1ccccc1 [Compound 8, N-(2,3-dihydro-1H-pyrrolo[1,2-a]benzimidazol-6-yl)-1-benzyl-5-trifluoromethyl-1H-pyrrolo[2,3-b]pyridine-2-carboxamide]",,71,
"O=C(Nc1ccc2nc3n(c2c1)CCOC3)c1cc2cc(F)ccc2n1Cc1cccc(F)c1 [Compound 15, N-(3,4-dihydro-1H-oxazino[1,4][4,3-a]benzimidazol-7-yl)-5-fluoro-1-(3-fluorobenzyl)-1H-indole-2-carboxamide]",,56,
"CC1CN=C2Nc3ccc(NC(=O)c4cc5cc(F)ccc5n4Cc4cccc(F)c4)cc3N21 (stereo not drawn) [Compound 26, N-(2,3-dihydro-3-methylimidazo[1,2-a]benzimidazol-6-yl)-5-fluoro-1-(3-fluorobenzyl)-1H-indole-2-carboxamide]",,46,
